Source: patent US10328062B2, “Biomarkers and use of MET inhibitor for treatment of cancer” (AMGEN, INC., priority 2014, dated 2019)
Where two headings read alike, the source gives them in different places.

Key:
[1] = tested on: SNU-5; experiment: 72 hour cancer cell line viability assay (CellTiter-Glo); type: cell-based, Human
Description: (§1) Human cancer cell lines were purchased from ATCC, JCRB, Sigma Aldrich or DSMZ. All cell lines were propagated in growth media per the suppliers' recommendation and maintained in 5% CO2 and 37° C.
(§2) Cancer cell line viability assays were carried out using the CellTiter-Glo Luminescent Cell Viability Assay from Promega (Madison, Wis.). Optimal cell seeding densities were determined using time lapse imaging to maximize signal window and ensure cells were not contact growth inhibited at the 72 hour time point. Cells were seeded in 96 well plates in complete growth media and allowed to adhere to the bottom of the plate by incubation at 37° C. and 5% CO2 overnight. […] Plates were incubated at 37° C. and 5% CO2 for 72 hours. Treated plates were then allowed to equilibrate to room temperature along with, CellTiter-Glo substrate and buffer solution prior to use in the viability assay. CellTiter-Glo substrate vials were reconstituted in 10 mL of buffer solution and added to assay plates in 100 μL/well volumes. Plates were shaken for 2 minutes at 700 rotations per minute with an orbit diameter of 3 mm followed by room temperature incubation for 10 minutes. Plates were then read using an Envision plate reader on luminescent setting.
(§3) To calculate growth inhibition effects (0-200% scale), time zero vehicle treated wells (V0), were read at the time of compound addition for each cell line.
(§4) Threshold for high vs low MET copy number was set at aCGH log 2 ratio of 2.5. Focal nature of MET copy number increase was defined qualitatively using tiled aCGH results for chromosome 7.
(§5) Percent growth inhibition is reported on a 0-200% scale where 0% is equivalent to no effect (time 72 hour control), 100% is equivalent to stasis (time 0 hour control) and 200% is equivalent to complete cell death.

[2] = tested on: SNU-620; experiment: as above; type: cell-based, Human
Description: as §1, §2, §3, §4, §5

[3] = tested on: TPR-MET xenografts; experiment: animal or person
Description: Nude mice bearing established TPR-MET xenografts were treated with Compound Mat doses of 0.1, 0.5, 0.75, 1, 2, 3, or 10 mg/kg. Three hours post dose, tumors were excised and flash frozen in liquid nitrogen. Tumors were then homogenized in lysis buffer containing protease and phosphatase inhibitors. Lysates were then processed per the SDS-PAGE and Immunoblotting protocol.
Tumors were harvested 3 hours post dose and tumor lysates prepared for analysis by SDS-PAGE and immunoblot using antibodies to phospho-Gab1 and β-actin. Phospho-Gab1 levels were quantified using a chemiluminescent imaging system.

[4] = Phase 1 Study 20101132 preliminary PK analysis; settings: human, in vivo
Description: Safety is assessed according to Common Terminology Criteria for Adverse Events (CTCAE) v4.0 criteria and the DLT (dose limiting toxicity) window is 28 days. Dose escalation is proceeding with a modified 3+3+3 design, which defines the MTD (maximum tolerated dose) to have been exceeded when ≥3 subjects in a cohort experience a DLT.
Dose escalation consists of up to 8 cohorts of 3 to 9 evaluable subjects each. Initially, up to 4 subjects may enroll into a cohort. […] At least 6 subjects will be treated at the MTD. An expansion cohort of up to 20 subjects at the MTD (determined in the dose escalation portion) will be considered to obtain further safety, PK, and efficacy data.

[5] = tested on: advanced solid tumors; experiment: Phase 1 Study 20101132 tumor response (RECIST); type: in vivo, human; set-up: key to Best Response (RESIST): CR—complete response; PD—progressive disease; PR—partial response
From the text: Eligible subjects have disease that is refractory or resistant to standard treatments or disease for which no standard therapy exists.
The 300-mg dose was identified as an MTD for QD dosing schedule and the recommended phase 2 dose. Twice daily dose escalation is currently ongoing and the MTD has not yet been determined as of the data cutoff date. As of the data cutoff date of 23 Jul. 2014, tumor-response data were available from 84 subjects in Study 20101132, including data on 62 subjects with >1 post-screening Response Evaluation Criteria in Solid Tumors (RECIST) tumor measurement by central read (22 subjects had screening data only). […] Of these 7 responders, 6 had gastric, gastroesophageal junction (GEJ) or esophageal adenocarcinoma with evidence of MET amplification identified by fluorescence in-situ hybridization assay performed by an experienced local laboratory per regulatory guideline.
MET amplification in gastric cancer samples was determined as follows, formalin fixed, paraffin embedded (FFPE) sections are pretreated with a paraffin pretreatment reagent to deparafffinize the sections. Sections with sufficient tumor material are hybridized with MET and chromosome 7 probes and analyzed using a fluorescent microscope. Standard FISH scoring practices were used to assess MET amplification. Samples of sufficient quality were reviewed by a pathologist and to assess MET copy number 20 individual, intact nuclei within a sample were identified. Copy number of the MET gene and the chromosome 7 probe were quantitated for each nuclei and an average copy number per nuclei is calculated to yield a score for an individual sample. A ratio of MET to Chromosome 7 (CEN 7) copy number was calculated to yield the ratio score per sample. Initial results were conducted using a laboratory developed test (FISH Ratio 1) and confirmed on a second test at a central lab (FISH Ratio 2) in Table 2.

[6] = of 62 subjects with post-screening RECIST measurement, cutoff 23 Jul. 2014

For `COCCOc1cnc2ccn([C@H](C)c3nnc4c(F)cc(-c5cnn(C)c5)cn34)c(=O)c2c1` [Compound M, 6-{(1R)-1-[8-fluoro-6-(1-methyl-1H-pyrazol-4-yl)[1,2,4]triazolo[4,3-a]pyridin-3-yl]ethyl}-3-(2-methoxyethoxy)-1,6-naphthyridin-5(6H)-one], the IC50 ([1]; Homo sapiens, SNU-5, 72 h) was 3 nM, the viability response type ([1]; SNU-5, 72 hour, 0-200% growth inhibition scale) was “evidence of cell death” and the IC50 ([2]; Homo sapiens, SNU620, 72 h) was 14 nM. For the same molecule, the viability response type ([2]; SNU-620, 72 hour, 0-200% growth inhibition scale) was “evidence of cell death”, the inhibition at 1 mg/kg ([3]; Mus musculus, 3 h, read-out: inhibition of phospho-Gab1) was over 90% and the “average exposure shown to inhibit c-Met activity by 90%” value ([3]; TPR-Met xenograft model) was 0.154 µg/mL. The half-life ([4]; oral, 43 subjects, once daily doses of 25 to 400 mg, tablet formulation, read-out: mean estimates of T1/2,z) was 4.6 to 7.4 h, the concentration at 28 days ([4]; oral, cohort 3 (100 mg) after 28 days of dosing, read-out: human mean trough concentration) was 131 ng/mL and the half-life ([4]; 24 subjects, daily oral doses of up to 200 mg, as of 20 Aug. 2012, read-out: Mean estimates of elimination half-life) was 4.6 to 6.9 h. For the same molecule, the “Best Response (RESIST)” value ([5]; Subject A, Esophageal, FISH ratio 4.2 local, 8.41 central) was “CR”, the “Best Response (RESIST)” value ([5]; Subject B, Gastroesophageal, FISH ratio 2.3 local, 3.09 central) was “PD” and the “Best Response (RESIST)” value ([5]; Subject C, Gastric Adenocarcinoma, FISH ratio 4.1 local) was “PR”. For the same molecule, the “Best Response (RESIST)” value ([5]; Subject D, Esophageal, FISH ratio 4.3 local, 7.31 central) was “PR”, the “Best Response (RESIST)” value ([5]; Subject E, Gastric Adenocarcinoma, FISH local: suspected) was “PR” and the “Best Response (RESIST)” value ([5]; Subject F, Gastric Carcinoma, FISH ratio 4.24 local, 6.54 central) was “PD”. The “Best Response (RESIST)” value ([5]; Subject H, Gastroesophageal Junction, Non-amp, FISH ratio 1.06 central) was “PD”, the “Best Response (RESIST)” value ([5]; Subject I, Esophageal, Non-amp, FISH ratio 1.00 central) was “PD” and the “Best Response (RESIST)” value ([5]; Subject J, Gastric Adenocarcinoma, Non-amp, FISH ratio 1.00 central) was “PD”. For the same molecule, the “subjects with a complete response” value [5, 6] was 1 subject, the “subjects with a partial response” value [5, 6] was 6 subjects and the “clinical response, tumor reduction by RECIST v1.1” value ([5]; subjects with focal MET amplification, MET FISH ratio ≥2.0) was “measurable clinical response”. For the same molecule, the “clinical response, tumor reduction by RECIST v1.1” value ([5]; subjects without focal MET amplification) was “no measurable clinical response”.
